Patent US9428519B2, “Acylated derivative of homoharringtonine, preparation method therefor, and application thereof” (HANGZHOU BENSHENG PHARMACEUTICAL CO., LTD., priority 2011, dated 2016)
≈ marks a conversion by molar mass, not a printed value.

Key:
[1] = tested on: H9 (acute lymphoblastic leukemia, ALL); assay: MTT growth inhibition of leukemia cells, 72 h; format: cell-based, human; conditions: MTT
Method in brief: (§1)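 Seed 6000 cells/well (1640, 10% FBS); add compound at several concentrations, mix; incubate 72 h, 37 °C, 5% CO2; MTT read; % viability vs untreated control; IC50 at 72 h.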

[2] = tested on: Jurkat (acute lymphoblastic leukemia, ALL); assay: MTT growth inhibition of leukemia cells, 72 h; format: cell-based, human
Method in brief: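 Jurkat human acute lymphoblastic leukemia cells were seeded at 6000 cells per well in 96-well plates containing 1640 medium with 10% fetal bovine serum. Test compounds were added across a range of concentrations, and plates were held at 37° C. in 5% CO2 for 72 hours before viable cells were quantified by MTT.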

[3] = tested on: K562/adr (drug-resistant, chronic myeloid leukemia, CML); assay: MTT growth inhibition of leukemia cells, 72 h; format: cell-based, human; conditions: MTT
Method in brief: as §1

[4] = tested on: Kasumi-1 (acute myeloid leukemia M2 type, AML-M2); assay: MTT growth inhibition of leukemia cells, 72 h; format: cell-based, human
Method in brief: as §1

[5] = tested on: NB4 (acute promyelocytic leukemia, AML); assay: MTT growth inhibition of leukemia cells, 72 h; format: cell-based, human; conditions: MTT
Method in brief: as §1

[6] = tested on: RPMI8226 (multiple myeloma); assay: MTT growth inhibition of multiple myeloma cells, 72 h; format: cell-based, human
Method in brief: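 RPMI8226 cells (6000/well) in 1640 medium with 10% FBS were exposed to graded compound concentrations for 72 h at 37 °C, 5% CO2. Viable cells were read by MTT, normalised to untreated control as 100% viability, and 72 h IC50 calculated.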

A549 (human lung cancer) = assay: MTT growth inhibition of human solid tumor cells, 72 h; format: cell-based
Method in brief: (§2)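 MTT determination of viable cells gives percent viability, normalised to untreated wells taken as 100%. Cells (4000 per well) grew 24 h in serum-supplemented DMEM high glucose, then faced graded compound concentrations for 72 h at 37° C under 5% CO2.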

[7] = tested on: Becap37 (human breast cancer cell); assay: as above; format: cell-based
Method in brief: as §2

[8] = tested on: CNE (nasopharyngeal carcinoma cell); assay: as above; format: cell-based; conditions: MTT
Method in brief: as §2

[9] = tested on: CaES-17 (esophageal cancer cell); assay: as above; format: cell-based
Method in brief: as §2

[10] = tested on: Hela (human cervical cancer cell); assay: as above; format: cell-based; conditions: MTT
Method in brief: as §2

[11] = tested on: Hep-2 (laryngeal carcinoma); assay: as above; format: cell-based
Method in brief: as §2

[12] = tested on: Huh7 (human liver cancer cell); assay: as above; format: cell-based
Method in brief: as §2

MG63 (osteosarcoma) = assay: as above; format: cell-based
Method in brief: as §2

[13] = tested on: MGC 803 (human gastric cancer cell); assay: as above; format: cell-based
Method in brief: as §2

[14] = tested on: PANC-1 (pancreatic cancer); assay: as above; format: cell-based
Method in brief: as §2

PC-3 (prostate cancer) = assay: as above; format: cell-based; conditions: MTT
Method in brief: as §2

[15] = tested on: RKO (human colon adenocarcinoma cell); assay: as above; format: cell-based; conditions: MTT
Method in brief: as §2

[16] = tested on: SK-OV-3 (ovarian cancer cell); assay: as above; format: cell-based
Method in brief: as §2

[17] = tested on: U87 MG (malignant glioma cell); assay: as above; format: cell-based
Method in brief: as §2

COC(=O)C[C@](O)(CCCC(C)(C)OC(=O)C1CC1)C(=O)O[C@@H]1C(OC)=C[C@]23CCCN2CCc2cc4c(cc2[C@H]13)OCO4 [BS-HH-062]
IC50 ([1]; Homo sapiens): 0.008 µg/mL (≈ 0.013 µM) | IC90 ([1]; Homo sapiens): 0.02 µg/mL (≈ 0.0326 µM) | IC50 ([2]; Homo sapiens, Jurkat): 0.012 µg/mL (≈ 0.0196 µM) | IC90 ([2]; Homo sapiens, Jurkat): ≥ 16 µg/mL | IC50 ([3]; Homo sapiens, K562/Adr): 0.06 µg/mL (≈ 0.0978 µM) | IC90 ([3]; Homo sapiens, K562/Adr): 0.75 µg/mL (≈ 1.22 µM) | IC50 ([4]; Homo sapiens, Kasumi 1, MTT): 0.002 µg/mL (≈ 0.00326 µM) | IC90 ([4]; Homo sapiens, Kasumi 1, MTT): 0.005 µg/mL (≈ 0.00815 µM) | IC50 ([5]; Homo sapiens): 0.004 µg/mL (≈ 0.00652 µM) | IC90 ([5]; Homo sapiens): 0.007 µg/mL (≈ 0.0114 µM) | IC50 ([6]; Homo sapiens, RPMI-8226, MTT): 0.007 µg/mL (≈ 0.0114 µM) | IC90 ([6]; Homo sapiens, RPMI-8226, MTT): 0.029 µg/mL (≈ 0.0473 µM) | IC50 (A549 (human lung cancer); Homo sapiens, A549): 0.04 µg/mL (≈ 0.0652 µM) | IC90 (A549 (human lung cancer); Homo sapiens, A549): > 16 µg/mL | IC50 ([7]; Homo sapiens): 0.014 µg/mL (≈ 0.0228 µM) | IC90 ([7]; Homo sapiens): 15.6 µg/mL (≈ 25.4 µM) | IC50 ([8]; Homo sapiens): 0.028 µg/mL (≈ 0.0456 µM) | IC90 ([8]; Homo sapiens): > 16 µg/mL | IC50 ([9]; Homo sapiens, CaEs17): 0.058 µg/mL (≈ 0.0945 µM) | IC90 ([9]; Homo sapiens, CaEs17): 16 µg/mL (≈ 26.1 µM) | IC50 ([10]; Homo sapiens, HeLa): 0.026 µg/mL (≈ 0.0424 µM) | IC90 ([10]; Homo sapiens, HeLa): 16 µg/mL (≈ 26.1 µM) | IC50 ([11]; Homo sapiens, HEp-2): 0.015 µg/mL (≈ 0.0244 µM) | IC90 ([11]; Homo sapiens, HEp-2): > 16 µg/mL | IC50 ([12]; Homo sapiens, Huh-7): 0.004 µg/mL (≈ 0.00652 µM) | IC90 ([12]; Homo sapiens, Huh-7): 0.049 µg/mL (≈ 0.0798 µM) | IC50 (MG63 (osteosarcoma); Homo sapiens, MG-63, MTT): 0.012 µg/mL (≈ 0.0196 µM) | IC90 (MG63 (osteosarcoma); Homo sapiens, MG-63, MTT): 0.77 µg/mL (≈ 1.25 µM) | IC50 ([13]; Homo sapiens, MGC-803): 0.015 µg/mL (≈ 0.0244 µM) | IC90 ([13]; Homo sapiens, MGC-803): 0.07 µg/mL (≈ 0.114 µM) | IC50 ([14]; Homo sapiens, PANC-1, MTT): 0.044 µg/mL (≈ 0.0717 µM) | IC90 ([14]; Homo sapiens, PANC-1, MTT): > 16 µg/mL | IC50 (PC-3 (prostate cancer); Homo sapiens): 0.11 µg/mL (≈ 0.179 µM) | IC90 (PC-3 (prostate cancer); Homo sapiens): > 16 µg/mL | IC50 ([15]; Homo sapiens): 0.005 µg/mL (≈ 0.00815 µM) | IC90 ([15]; Homo sapiens): 0.025 µg/mL (≈ 0.0407 µM) | IC50 ([16]; Homo sapiens, SK-OV-3, MTT): 0.12 µg/mL (≈ 0.196 µM) | IC90 ([16]; Homo sapiens, SK-OV-3, MTT): > 16 µg/mL | IC50 ([17]; Homo sapiens, U-87 MG): 0.02 µg/mL (≈ 0.0326 µM) | IC90 ([17]; Homo sapiens, U-87 MG): 0.1 µg/mL (≈ 0.163 µM)

COC(=O)C[C@](O)(CCCC(C)(C)OC(=O)c1cnoc1C)C(=O)O[C@@H]1C(OC)=C[C@]23CCCN2CCc2cc4c(cc2[C@H]13)OCO4 [BS-HH-061]
IC50 H9 [1]: 0.14 µg/mL (≈ 0.214 µM) | IC90 H9 [1]: 0.25 µg/mL (≈ 0.382 µM) | IC50 Jurkat [2]: 0.071 µg/mL (≈ 0.108 µM) | IC90 Jurkat [2]: ≥ 16 µg/mL | IC50 K562/adr [3]: 0.24 µg/mL (≈ 0.367 µM) | IC90 K562/adr [3]: 12.57 µg/mL (≈ 19.2 µM) | IC50 Kasumi-1 ([4]; MTT): 0.062 µg/mL (≈ 0.0947 µM) | IC90 Kasumi-1 ([4]; MTT): 0.23 µg/mL (≈ 0.351 µM) | IC50 NB4 [5]: 0.07 µg/mL (≈ 0.107 µM) | IC90 NB4 [5]: 0.14 µg/mL (≈ 0.214 µM) | IC50 RPMI8226 ([6]; MTT): 0.062 µg/mL (≈ 0.0947 µM) | IC90 RPMI8226 ([6]; MTT): 0.25 µg/mL (≈ 0.382 µM) | IC50 A549 (A549 (human lung cancer)): 0.52 µg/mL (≈ 0.794 µM) | IC90 A549 (A549 (human lung cancer)): >16 µg/mL | IC50 Becap37 [7]: 0.17 µg/mL (≈ 0.26 µM) | IC90 Becap37 [7]: 16 µg/mL (≈ 24.4 µM) | IC50 CNE [8]: 0.42 µg/mL (≈ 0.642 µM) | IC90 CNE [8]: >16 µg/mL | IC50 CaES-17 [9]: 0.38 µg/mL (≈ 0.58 µM) | IC90 CaES-17 [9]: 16 µg/mL (≈ 24.4 µM) | IC50 Hela [10]: 0.31 µg/mL (≈ 0.473 µM) | IC90 Hela [10]: 16 µg/mL (≈ 24.4 µM) | IC50 Hep-2 [11]: 0.39 µg/mL (≈ 0.596 µM) | IC90 Hep-2 [11]: >16 µg/mL | IC50 Huh7 [12]: 0.056 µg/mL (≈ 0.0855 µM) | IC90 Huh7 [12]: 0.34 µg/mL (≈ 0.519 µM) | IC50 MG 63 (MG63 (osteosarcoma); MTT): 0.093 µg/mL (≈ 0.142 µM) | IC90 MG 63 (MG63 (osteosarcoma); MTT): 10.76 µg/mL (≈ 16.4 µM) | IC50 MGC 803 [13]: 0.058 µg/mL (≈ 0.0886 µM) | IC90 MGC 803 [13]: 0.16 µg/mL (≈ 0.244 µM) | IC50 PANC-1 ([14]; MTT): 0.21 µg/mL (≈ 0.321 µM) | IC90 PANC-1 ([14]; MTT): >16 µg/mL | IC50 PC-3 (PC-3 (prostate cancer)): 3.15 µg/mL (≈ 4.81 µM) | IC90 PC-3 (PC-3 (prostate cancer)): >16 µg/mL | IC50 RKO [15]: 0.039 µg/mL (≈ 0.0596 µM) | IC90 RKO [15]: 0.24 µg/mL (≈ 0.367 µM) | IC50 SK-OV-3 ([16]; MTT): 0.4 µg/mL (≈ 0.611 µM) | IC90 SK-OV-3 ([16]; MTT): >16 µg/mL | IC50 U87 MG [17]: 0.31 µg/mL (≈ 0.473 µM) | IC90 U87 MG [17]: 0.96 µg/mL (≈ 1.47 µM)
